Experimental findings from ChEMBL document CHEMBL4706626, “Triterpenoid-Mediated Inhibition of Virus-Host Interaction: Is Now the Time for Discovering Viral Entry/Release Inhibitors from Nature?” (J Med Chem, 2020) are described below.

In one data set the test system is HEK293T. As to the kind of experiment: Inhibition of Ebola virus pseudoparticle GP HR2 domain-mediated viral entry into human 293T cells at 1 uM incubated for 72 hrs by Bright-Glo reagent based assay relative to control. It counts as cell-based. The conditions noted are these: Ebolavirus.
Data set [1] can be described thus: Selectivity index, ratio of CC50 for human MRC5 cells to EC50 for HCoV-229E infected in human MRC5 cells. The conditions noted are these: MRC5 cells (CC50) and HCoV-229E-infected MRC5 cells (EC50). It counts as toxicity, cell-based.
The subject of a further data set is Human coronavirus 229E. Description: Antiviral activity against HCoV-229E infected in human MRC5 cells incubated for 2 hrs by XTT method. The conditions noted are these: MRC5, 2 h. It counts as functional, organism-based.
A further data set concerns the target Albumin (Homo sapiens, UniProt P02768). As to the kind of experiment: Protein binding in human serum albumin. The conditions noted are these: read-out: PB. It counts as ADME.
A short description of data set [2]: Aqueous solubility of compound. It counts as physicochemical.
A short description of data set [3]: Inhibition of Zaire Ebola virus pseudoparticle GP HR2 domain-mediated virus-host fusion in human A549 cells incubated for 72 hrs by Bright-Glo reagent based assay. It counts as cell-based, Zaire ebolavirus.
Data set [4] is described as follows: Antiviral activity against Ebola virus Makona infected in human foreskin fibroblast pretreated for 2 hrs followed by viral infection for 48 hrs by Alexa Fluor 488 staining based assay. It counts as functional, cell-based. The following applies: Zaire ebolavirus.
The nature of data set [5]: Inhibition of Zaire Ebola virus pseudoparticle GP HR2 domain-mediated virus-host fusion in human 293T cells incubated for 72 hrs by Bright-Glo reagent based assay. It counts as cell-based, Zaire ebolavirus. The conditions noted are these: hek293t.
A short description of data set [6]: Antiviral activity against Ebola virus Makona infected in human HeLa cells pretreated for 2 hrs followed by viral infection for 48 hrs by Alexa Fluor 488 staining based assay. It counts as functional, cell-based. The following applies: Zaire ebolavirus.
Data set [7] is described as follows: Binding affinity to EBOV envelope glycoprotein HR2 domain assessed as reduction in HR1-HR2 interaction by measuring Kd for HR1-HR2 affinity by surface plasmon resonance (reference value: 1 uM). Set-up: species or system Ebolavirus. Background: In SPR one partner is held on a chip, and binding of the other changes the refractive index at the surface.
Data set [8] can be described thus: Binding affinity to EBOV envelope glycoprotein HR2 domain by surface plasmon resonance. Set-up: species or system Ebolavirus.
Data set [9] deals with Human immunodeficiency virus 1. As to the kind of experiment: Anti-HIV-1 activity against HIV1 IIIB infected in human H9 cells assessed as in p24 antigen production by sandwich ELISA. It counts as functional, organism-based. The following applies: Human immunodeficiency virus 1, IIIB. (In an ELISA, binding on a coated surface is turned into a signal by an enzyme label.)
In data set [10] the test system is Human immunodeficiency virus 1. As to the kind of experiment: Antiviral activity against HIV-1 harboring V307A mutant. It counts as functional, organism-based.
The subject of data set [11] is Human immunodeficiency virus 1. As to the kind of experiment: Antiviral activity against HIV-1 NL4-3. The following applies: Human immunodeficiency virus 1, NL4-3. It counts as functional, organism-based.
Data set [12] relates to Human immunodeficiency virus 1. Description: Anti-HIV-1 activity against HIV1 IIIB/LAI infected in human CEM 4 cells assessed as reduction in virus-indued cytopathic effect treated for 1 hr with cells followed by viral infection and measured after 5 days. It counts as functional, organism-based. The following applies: Human immunodeficiency virus 1, IIIB/LAI.
Data set [13] concerns Human immunodeficiency virus 1. As to the kind of experiment: Anti-HIV-1 activity against HIV1 NL4-3 infected in human HeLa expressing CD4/CCR5/beta-gal assessed as inhibition of syncytium formation incubated for 2 days by MAGI assay. It counts as functional, organism-based. The conditions noted are these: Human immunodeficiency virus 1, NL4-3, HeLa, 48 h.
For a further data set, the system named is Hepatitis C virus. As to the kind of experiment: Antiviral activity against HCV pseudoparticle infected in Huh-7 cells assessed as inhibition of viral entry pretreated for 30 mins with cells followed by viral infection for 4 hrs and subsequent compound wash out and measured after 72 hrs by Bright-Glo reagent based luciferase assay. It counts as functional, organism-based, Hepacivirus hominis.

As a reminder, the inhibition is the drop in the measured response relative to a control, in per cent. For orientation: IC50 means the concentration needed to halve the response being measured. Usually solubility stands for how much of the substance goes into solution per volume. Low values mean a poorly soluble substance, high ones a readily soluble substance. What is called EC50 is the midpoint of the concentration-response curve. As usually defined, the Kd is the concentration at which binding is half-saturated.

Albumin, sequence (P02768 whole entry): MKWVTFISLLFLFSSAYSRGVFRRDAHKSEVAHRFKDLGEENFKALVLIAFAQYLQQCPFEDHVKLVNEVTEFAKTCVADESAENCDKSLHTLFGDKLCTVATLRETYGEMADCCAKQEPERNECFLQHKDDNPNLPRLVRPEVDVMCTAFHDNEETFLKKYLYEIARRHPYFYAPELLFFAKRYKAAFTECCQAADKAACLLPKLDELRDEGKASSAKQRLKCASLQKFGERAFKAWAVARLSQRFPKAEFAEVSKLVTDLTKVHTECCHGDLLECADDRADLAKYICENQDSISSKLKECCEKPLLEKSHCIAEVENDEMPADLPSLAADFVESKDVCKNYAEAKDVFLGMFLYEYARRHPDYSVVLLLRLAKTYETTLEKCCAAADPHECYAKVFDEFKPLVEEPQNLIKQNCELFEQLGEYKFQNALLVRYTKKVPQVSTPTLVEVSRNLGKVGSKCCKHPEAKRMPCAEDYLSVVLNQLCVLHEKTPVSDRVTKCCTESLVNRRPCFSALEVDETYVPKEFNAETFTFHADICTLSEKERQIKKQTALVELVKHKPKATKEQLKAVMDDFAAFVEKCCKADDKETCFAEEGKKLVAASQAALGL

As to `CC(=O)OC[C@H]1O[C@@H](NC(=O)[C@]23CCC(C)(C)C[C@H]2C2=CC[C@@H]4[C@@]5(C)CC[C@H](O)C(C)(C)[C@@H]5CC[C@@]4(C)[C@]2(C)C[C@H]3O)[C@H](OC(C)=O)[C@@H](OC(C)=O)[C@H]1OC(C)=O`, the inhibition in the data set on HEK293T is 22%.
On the same count and under the same terms, the figure for `CC(=O)OC[C@H]1O[C@@H](NC(=O)[C@]23CCC(C)(C)C[C@H]2C2=CC[C@@H]4[C@@]5(C)CC[C@H](O)C(C)(C)[C@@H]5CC[C@@]4(C)[C@]2(C)CC3)[C@H](OC(C)=O)[C@@H](OC(C)=O)[C@H]1OC(C)=O` is 32%.
`C[C@H]1O[C@@](O)(O[C@H]2CC[C@@]3(C)[C@@H](CC[C@]4(C)[C@@H]3C=CC3=C5CC(C)(C)CC[C@]5(CO)[C@H](O)C[C@]34C)[C@]2(C)CO)[C@H](O)[C@@H](O[C@@H]2O[C@H](CO)[C@@H](O)[C@H](O)[C@H]2O)[C@H]1O`: in data set [1], the selectivity ratio came to 222. The same molecule displayed an IC50 in the data set with Human coronavirus 229E of 1700 nM.
`CC1(C)CC[C@]2(C(=O)O)[C@H](O)C[C@]3(C)C(=CC[C@@H]4[C@@]5(C)CC[C@H](O)C(C)(C)[C@@H]5CC[C@]43C)[C@@H]2C1`: the inhibition with HEK293T worked out at 2%.
On the same count and under the same terms, the figure for `CC1(C)CC[C@]2(C(=O)N[C@@H]3O[C@H](CO)[C@H](O)[C@H](O)[C@H]3O)CC[C@]3(C)C(=CC[C@@H]4[C@@]5(C)CCC(=O)C(C)(C)[C@@H]5CC[C@]43C)[C@@H]2C1` is 7%; for `CC1(C)CC[C@]2(C(=O)N[C@@H]3O[C@H](CO)[C@H](O)[C@H](O)[C@H]3O)[C@H](O)C[C@]3(C)C(=CC[C@@H]4[C@@]5(C)CC[C@H](O)C(C)(C)[C@@H]5CC[C@]43C)[C@@H]2C1` it is 16%; for `CC1(C)CC[C@]2(C(=O)O)CC[C@]3(C)C(=CC[C@@H]4[C@@]5(C)CCC(=O)C(C)(C)[C@@H]5CC[C@]43C)[C@@H]2C1` it is 25%.
As to `C=C(C)[C@@H]1CC[C@]2(C(=O)O)CC[C@]3(C)[C@H](CC[C@@H]4[C@@]5(C)CC[C@H](OC(=O)CC(C)(C)C(=O)O)C(C)(C)[C@@H]5CC[C@]43C)[C@@H]12` [BEVIRIMAT], the fraction unbound on Albumin was below 0.01. In [2], this molecule came in with a solubility below 1 µg/mL.
Turning to `CC(=O)OC[C@H]1O[C@@H](NC(=O)[C@]23CCC(C)(C)C[C@H]2C2=CC[C@@H]4[C@@]5(C)CCC(=O)C(C)(C)[C@@H]5CC[C@@]4(C)[C@]2(C)CC3=O)[C@H](OC(C)=O)[C@@H](OC(C)=O)[C@H]1OC(C)=O`, the IC50 in [3] and in data set [5] was 59.2 nM in each case. Moreover, the EC50 in [4] is 990 nM; in data set [6], 460 nM. The values for the Kd in data set [7] and in data set [8] were 23400 nM and 5400 nM, respectively. Also, in the data set on HEK293T, the inhibition came out at 99%.
As for `C#CCN(CCCC1(C)N=N1)C(=O)[C@]12CCC(C)(C)C[C@H]1C1=CC[C@@H]3[C@@]4(C)CCC(=O)C(C)(C)[C@@H]4CC[C@@]3(C)[C@]1(C)CC2=O`, binding in data set [8] was put at a Kd of 16800 nM.
`C=C(C)[C@@H]1CC[C@]2(C(=O)NCCCCCCCC(=O)N[C@@H](CC(C)C)[C@@H](O)CC(=O)O)CC[C@]3(C)[C@H](CC[C@@H]4[C@@]5(C)CC[C@H](O)C(C)(C)[C@@H]5CC[C@]43C)[C@@H]12`: the IC50 in data set [9] was found to be 30 nM.
With `CC(=O)OC[C@H]1O[C@@H](NC(=O)[C@]23CCC(C)(C)C[C@H]2C2=CC[C@@H]4[C@@]5(C)CC[C@H](O)C(C)(C)[C@@H]5CC[C@@]4(C)[C@]2(C)C[C@H]3O)[C@@H](OC(C)=O)[C@@H](OC(C)=O)[C@@H]1OC(C)=O`, in the data set with HEK293T, the inhibition turned out to be 17%.
With `CC(C)C1=C2[C@H]3CC[C@@H]4[C@@]5(C)CC[C@H](OC(=O)CC(C)(C)C(=O)O)C(C)(C)[C@@H]5CC[C@@]4(C)[C@]3(C)CC[C@@]2([C@@H](O)CN(CCN(C)C)Cc2ccc(Cl)cc2)CC1=O` [GSK2838232], the results for the IC50 in [10] and in [11] were 0.71 nM and 0.81 nM, respectively.
Take `C=C(C)[C@@H]1CC[C@]2(C(=O)NCCCCCCCCCCC(=O)O)CC[C@]3(C)[C@H](CC[C@@H]4[C@@]5(C)CC[C@H](O)C(C)(C)[C@@H]5CC[C@]43C)[C@@H]12`: the IC50 in data set [12] amounted to 230 nM.
Turning to `CC1(C)CCC2C(=O)C[C@]3(C)C(=CC[C@@H]4[C@@]5(C)CCC(=O)C(C)(C)[C@@H]5CC[C@]43C)[C@@H]2C1` (stereo partly drawn), the IC50 in data set [3] and in data set [5] was 1350 nM each time. In addition, the inhibition in the data set with HEK293T is 52%.
Turning to `CC1(C)CC[C@]2(C(=O)N[C@@H]3O[C@H](CO)[C@H](O)[C@H](O)[C@H]3O)CC[C@]3(C)C(=CC[C@@H]4[C@@]5(C)CC[C@H](O)C(C)(C)[C@@H]5CC[C@]43C)[C@@H]2C1`, the inhibition with HEK293T was found to be 16%.
Turning to `C=C(C)[C@@H]1CC[C@]2(C(=O)NCCCCCCCC(=O)N[C@@H](CC(C)C)[C@H](O)CC(=O)O)CC[C@]3(C)[C@H](CC[C@@H]4[C@@]5(C)CC[C@H](O)C(C)(C)[C@@H]5CC[C@]43C)[C@@H]12`, in data set [13], the EC50 turned out to be 400 nM.
Consider `CC(=O)OC[C@H]1O[C@@H](NC(=O)[C@]23CCC(C)(C)C[C@H]2C2=CC[C@@H]4[C@@]5(C)CCC(=O)C(C)(C)[C@@H]5CC[C@@]4(C)[C@]2(C)CC3)[C@H](OC(C)=O)[C@@H](OC(C)=O)[C@H]1OC(C)=O`, for which the IC50 in [3] and in [5] was 467 nM throughout. In the data set with HEK293T, the inhibition worked out at 93%.
As for `CC1(C)CC[C@]2(C(=O)N[C@@H]3O[C@H](CO)[C@@H](O)[C@H](O)[C@@H]3O)[C@H](O)C[C@]3(C)C(=CC[C@@H]4[C@@]5(C)CC[C@H](O)C(C)(C)[C@@H]5CC[C@]43C)[C@@H]2C1`, the inhibition with HEK293T was found to be 3%.
Same read-out and setting: the figure for `CC1(C)CC[C@]2(C(=O)N[C@@H]3O[C@H](CO)[C@H](O)[C@H](O)[C@H]3O)C(=O)C[C@]3(C)C(=CC[C@@H]4[C@@]5(C)CCC(=O)C(C)(C)[C@@H]5CC[C@]43C)[C@@H]2C1` is 6%.
The same measure, in the same setting: the figure for `CC1(C)CC[C@]2(C(=O)N[C@@H]3O[C@H](CO)[C@@H](O)[C@H](O)[C@@H]3O)CC[C@]3(C)C(=CC[C@@H]4[C@@]5(C)CC[C@H](O)C(C)(C)[C@@H]5CC[C@]43C)[C@@H]2C1` is -5%.
As to `CC(C)C[C@H](NC(=O)CCCCCCCNC(=O)[C@]12CC[C@@H](C(C)C)[C@@H]1[C@H]1CC[C@@H]3[C@@]4(C)CC[C@H](O)C(C)(C)[C@@H]4CC[C@@]3(C)[C@]1(C)CC2)[C@H](O)CC(=O)O`, in data set [13], the EC50 amounted to 330 nM.
`CC(=O)OC[C@H]1O[C@@H](NC(=O)[C@]23CCC(C)(C)C[C@H]2C2=CC[C@@H]4[C@@]5(C)CC[C@H](O)C(C)(C)[C@@H]5CC[C@@]4(C)[C@]2(C)CC3)[C@@H](OC(C)=O)[C@@H](OC(C)=O)[C@@H]1OC(C)=O`: the inhibition in the data set with HEK293T is -4%.
Turning to `CC1(C)CC[C@]2(C(=O)O)CC[C@]3(C)C(=CC[C@@H]4[C@@]5(C)CC[C@H](O)C(C)(C)[C@@H]5CC[C@]43C)[C@@H]2C1` [OLEANOLIC_ACID], in the data set on Hepatitis C virus, the IC50 turned out to be 10000 nM. Also, in the data set on HEK293T, the inhibition amounted to 1%.
